Laboratory results as given in patent US11696914B1 (priority 2019, dated 2023).
Values joined by “and” are separate entries in the source; they are usually repeats but may differ in a detail not shown here. Equal values may be shown once. Read-outs that look alike come from different tables or passages of the source.

Assays:
Hartley guinea pigs = details: both, guinea pig, in vivo
[1] = system: Marburg virus/H.sapiens-tc/AGO/2005/Ang-1379v (MARV/Ang); experiment: organism not typed; type: cell-based; details: HeLa
Dengue Virus 2 = experiment: microbe, parasite or virus in culture; type: cell-based; details: Vero 76
in vitro [2] = details: African green monkey
in vitro [3] = details: human
Human cytomegalovirus = experiment: microbe, parasite or virus in culture; type: cell-based; details: Human betaherpesvirus 5
Tacaribe virus = experiment: microbe, parasite or virus in culture; type: cell-based; details: Mammarenavirus tacaribeense, Vero
Poliovirus 3 = experiment: microbe, parasite or virus in culture; type: cell-based; details: Enterovirus C, Vero 76
[4] = human, microsomes, 1 h, pH 7.4
[5] = guinea pig, pH 7.4
[6] = human, microsomes
Yellow Fever virus = experiment: microbe, parasite or virus in culture; type: cell-based; details: Vero 76
Rift Valley fever virus = experiment: microbe, parasite or virus in culture; type: cell-based; details: Vero 76
[7] = system: Ebola virus/H.sapiens-tc/COD/1976/Yambuku-Mayinga (EBOV/May); experiment: microbe, parasite or virus in culture; type: cell-based; details: Zaire ebolavirus, HeLa
Herpes Simplex Virus 1 = experiment: microbe, parasite or virus in culture; type: cell-based; details: Human alphaherpesvirus 1
[8] = system: Ebola virus/H.sapiens-tc/GIN/2014/Makona-005 (EBOV/Mak); experiment: microbe, parasite or virus in culture; type: cell-based; details: Zaire ebolavirus, HeLa
Vero = details: African green monkey
Ebola virus = experiment: microbe, parasite or virus in culture; type: cell-based; details: Zaire ebolavirus, Vero 76
[9] = male, Hartley, guinea pig, in vivo
SARS-CoV-2 Spike RBD = SARS-CoV-2 Spike RBD (Severe acute respiratory syndrome coronavirus 2, UniProt P0DTC2); type: binding
[10] = system: Ebola virus/H.sapiens-tc/COD/1995/Kikwit-9510621 (EBOV/Kik); experiment: microbe, parasite or virus in culture; type: cell-based; details: Zaire ebolavirus, HeLa
Nipah virus = experiment: microbe, parasite or virus in culture; type: cell-based; details: Henipavirus nipahense, read-out: IC50 against Nipah virus
[11] = system: Respiratory synactial virus; experiment: organism not typed; type: cell-based; details: MA104
Vaccinia Virus = experiment: microbe, parasite or virus in culture; type: cell-based; details: Orthopoxvirus vaccinia
[12] = system: murine hepatitis virus (MHV); experiment: microbe, parasite or virus in culture; type: cell-based; details: Murine coronavirus, read-out: IC50 versus murine hepatitis virus (MHV)
Zika virus [13] = experiment: microbe, parasite or virus in culture; type: cell-based; details: Huh-7
Murine norovirus = experiment: microbe, parasite or virus in culture; type: cell-based; details: Norwalk virus, RAW267.4
MERS coronavirus = experiment: microbe, parasite or virus in culture; type: cell-based; details: Middle East respiratory syndrome-related coronavirus, Vero 76
West Nile virus = experiment: microbe, parasite or virus in culture; type: cell-based; details: Vero 76
SARS-CoV-2 = experiment: microbe, parasite or virus in culture; type: cell-based
in vitro [14] = details: mouse
HepG2 2.2.15 = details: human
Zika virus [15] = experiment: microbe, parasite or virus in culture; type: cell-based; details: Vero 76
[16] = mouse, microsomes
Norovirus = experiment: microbe, parasite or virus in culture; type: cell-based; details: HG23
in vitro [17] = details: dog
[18] = system: Venezuelian equine encephalitis virus; experiment: microbe, parasite or virus in culture; type: cell-based; details: Venezuelan equine encephalitis virus, Vero 76
[19] = microsomes
HeLa cells = details: human
Hepatitis C virus = experiment: microbe, parasite or virus in culture; type: cell-based; details: Huh-7

COc1ccc2nc3cc(Cl)ccc3c(Nc3cc(CN4CCCC4)c(O)c(CN4CCCC4)c3)c2n1 [Pyronaridine, 4-[(7-Chloro-2-methoxybenzo[b][1,5]naph-thyridin-10-yl)amino]-2,6-bis(1-pyrrolidinylmethyl)phenol phosphate (1:4)]
guinea pigs found dead on days 5 and 6 (Hartley guinea pigs): 2 of 6
guinea pigs found dead within 30 mins post injection (Hartley guinea pigs): 4 of 6
guinea pigs having any abnormal clinical observations (Hartley guinea pigs): 1 of 6
maximum tolerated dose (MTD), single dose (Hartley guinea pigs; ip): 125 mg/kg
maximum tolerated dose (MTD), single dose (Hartley guinea pigs; po): > 600 mg/kg
IC50 [1]: 2.72 ± 0.97 µM
IC50 ([1]; read-out: IC50 range against two strains of Marburg virus): 1.01 to 2.72 µM
EC50 (Dengue Virus 2): 3.2 µM
CC50 (in vitro [2]): 7.5 µM
CC50 (in vitro [3]): > 100 µM
EC50 (Human cytomegalovirus): > 1.2 µM
EC90 (Human cytomegalovirus): > 1.2 µM
EC50 (Tacaribe virus): > 3.2 µM
EC50 (Poliovirus 3): 3.2 µM
Relative Peak Area/Abundance HLM [4]: 85.9%
Relative Peak Area/Abundance GPLM [5]: 75.9%
Clint [6]: 11.4
Dextromethorphan: compound, t1/2 normalized to dextromethorphan control [6]: 6.2
t1/2 [6]: 2.037 h
EC50 (Yellow Fever virus): 3.2 µM
EC50 (Rift Valley fever virus): 3.2 µM
IC50 [7]: 1.01 ± 0.58 µM
EC50 (Herpes Simplex Virus 1): > 6 µM
EC90 (Herpes Simplex Virus 1): > 6 µM
IC50 [8]: 0.82 ± 0.19 µM
CC50 (Vero): 3.2 µM
EC50 (Ebola virus): > 1.3 µM
guinea pigs found dead on days 14 and 17 post dose ([9]; ip): 2 of 3
measurable plasma levels through ([9]; ip): 168 h
AUCinf Mean ([9]; ip, 125 mg/kg): 17,430 hr * ng/ml
AUClast Mean ([9]; ip, 125 mg/kg): 16,565 hr * ng/ml
Cmax Mean ([9]; ip, 125 mg/kg): 523 ng/mL
T1/2 ([9]; ip, 125 mg/kg): 72.7 h
measurable plasma levels through ([9]; po): 336 h
AUCinf Mean ([9]; po, 600 mg/kg): 58,783 hr * ng/ml
AUClast Mean ([9]; po, 600 mg/kg): 50,964 hr * ng/ml
Cmax Mean ([9]; po, 600 mg/kg): 1800 ng/mL
T1/2 ([9]; po, 600 mg/kg): 90.5 h
Kd (SARS-CoV-2 Spike RBD; pH5.2): 0.618 µM
Kd (SARS-CoV-2 Spike RBD; pH 7.4): 0.647 µM
IC50 [10]: 1.3 ± 0.42 µM
IC50 ([10]; read-out: IC50 range against three strains of EBOV): 0.82 to 1.3 µM
IC50 (Nipah virus): 0.064 µM
EC50 [11]: > 7.5 µM
EC50 (Vaccinia Virus): > 1.2 µM
EC90 (Vaccinia Virus): > 1.2 µM
IC50 [12]: 2.75 µM
EC50 (Zika virus [13]): 3.2 µM
EC50 (Murine norovirus): > 40 µM
EC90 (Murine norovirus): > 40 µM
EC50 (MERS coronavirus): 3.2 µM
EC50 (West Nile virus): > 24 µM
IC50 (SARS-CoV-2; Severe acute respiratory syndrome coronavirus 2, A549-ACE2, read-out: IC50 against SARS-CoV-2): < 0.2 µM
IC50 (SARS-CoV-2; read-out: IC50 against SARS-CoV-2): ~0.198 µM and 0.198 µM
CC50 (in vitro [14]): > 40 µM
CC50 (HepG2 2.2.15): 3.54 µM
EC50 (Zika virus [15]): 3.2 µM
Clint [16]: <7.4
Dextromethorphan: compound, t1/2 normalized to dextromethorphan control [16]: >11.5
t1/2 [16]: >3.1 h
EC50 (Norovirus): 3.5 µM
EC90 (Norovirus): 9.7 µM
CC50 (in vitro [17]): 3.2 µM
EC50 [18]: 1.8 µM
Clint [19]: 15.5
Dextromethorphan: compound, t1/2 normalized to dextromethorphan control [19]: 16.7
t1/2 ([19]; monkey): 1.5 h
CC50 (HeLa cells): 4.11 ± 0.5 µM
EC50 (Hepatitis C virus): 0.78 µM
EC90 (Hepatitis C virus): 1.71 µM
